Assay results from ChEMBL document CHEMBL4831479, “Discovery of Novel Thiophene-arylamide Derivatives as DprE1 Inhibitors with Potent Antimycobacterial Activities” (J Med Chem, 2021).
Values after ≈ are worked out from the molar mass of the structure shown.

What was measured:
[1] = tested on: Mycobacterium tuberculosis; assay: Non-covalent inhibition of DprE1 in PBTZ169-resistant Mycobacterium tuberculosis measured after 7 days by microplate Alamar blue assay; conditions: time 7.0 day
[2] = tested on: Mycobacterium tuberculosis; assay: Non-covalent inhibition of DprE1 in bedaquiline-resistant Mycobacterium tuberculosis measured after 7 days by microplate Alamar blue assay; conditions: time 7.0 day

| Compound | MIC [1] | MIC [2] |
| --- | --- | --- |
| COC(=O)NC(=O)c1ccsc1NC(=O)c1ccc(C(=O)N2CCCCC2)cc1 | 0.48 µg/mL (≈ 1.16 µM) |  |
| CCOC(=O)NC(=O)c1ccsc1NC(=O)c1ccc(C(=O)N2CCCCC2)cc1 | 0.14 µg/mL (≈ 0.326 µM) |  |
| CCOC(=O)NC(=O)c1ccsc1NC(=O)c1ccc(C(=O)N2CCCCC2)c(F)c1 | 0.062 µg/mL (≈ 0.139 µM) | 0.054 µg/mL (≈ 0.121 µM) |
